Patent US11730720B2, “ALK5 inhibitors” (THERAVANCE BIOPHARMA R&D IP, LLC, priority 2018, dated 2023)

Assays:
[1] = target: T1, recombinant human ALK5 (TGF-βR1) protein (Homo sapiens, UniProt P36897); assay: Biochemical ALK5 (TGF-βR1) assay to measure pKi (LANCE Ultra ULight kinase assay); details: apparent pKi, converted from pIC50 using the Cheng-Prusoff equation
T1 construct: purchased Life Technologies PR9075A
T1 sequence (P36897 34-503): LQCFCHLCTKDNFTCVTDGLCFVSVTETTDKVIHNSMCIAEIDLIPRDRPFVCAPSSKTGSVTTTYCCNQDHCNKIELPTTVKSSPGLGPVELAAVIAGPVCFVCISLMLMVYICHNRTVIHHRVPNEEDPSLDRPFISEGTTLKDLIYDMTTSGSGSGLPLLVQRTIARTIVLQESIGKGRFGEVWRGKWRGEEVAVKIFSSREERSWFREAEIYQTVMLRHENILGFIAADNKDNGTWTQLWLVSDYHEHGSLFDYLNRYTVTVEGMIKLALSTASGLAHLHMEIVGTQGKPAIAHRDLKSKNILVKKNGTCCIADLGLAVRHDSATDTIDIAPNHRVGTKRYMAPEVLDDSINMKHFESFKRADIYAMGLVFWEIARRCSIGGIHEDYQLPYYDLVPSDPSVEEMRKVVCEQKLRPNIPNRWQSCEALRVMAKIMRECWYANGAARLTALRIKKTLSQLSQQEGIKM
Experimental: Example 254: Biochemical ALK5 (TGF-βR1) Assay to Measure pKi
The assays were performed in a 384-well plate (24 columns×16 wells/rows). An Echo® 550 Liquid Handler (Labcyte) was used to prepare various intermediate concentrations of compounds of the present disclosure in 100% DMSO. From the intermediate concentrations, a range of concentrations (from 10 μM to 25 pM corresponding to volumes up to 105 nL) were prepared and ejected into a final assay plate to be used to create individual dose response curves for each of the subject compounds. To a separate column within the assay plate, 105 nL of DMSO in each well was used to establish a maximum assay signal. Additionally, 105 nL of 100 μM SD-208, a selective TGF-βR1 inhibitor (Catalog #S7624, Selleck Chemicals), was used in another column of wells to establish a minimal assay signal.
With a multidrop dispenser, 8 μL of enzyme mixture (1.25× final) was added to each well. The enzyme mixture consisted of 250 pM ALK5 enzyme and 62.5 nM peptide substrate (LANCE® (lanthanide chelate excite) Ultra ULight™-DNA Topoisomerase 2-alpha (Thr1342)) prepared in assay buffer (50 mM HEPES, 10 mM MgCl2, 1 mM EGTA, 0.01% Tween-20, pH 7.5 at room temperature) with 2 mM DTT added prior to use. The plate was then sealed with an adhesive seal and allowed to equilibrate for 60 minutes at room temperature.
Next, 2 μL of 125 μM ATP (5× final, 125 μM ATP prepared in assay buffer with 2 mM DTT) was added to the incubated mixtures, covered with a MicroClime® Environmental Lid (Product No. LLS-0310, Labcyte) and immediately transferred to 37° C. The reactions were allowed to proceed at 37° C. for 60 minutes before terminating with the addition of 10 μL of detection antibody (LANCE® (lanthanide chelate excite) Ultra Europium-anti-phospo-DNA Topoisomerase 2-alpha (Thr1342)) in detection mixture (12 mM EDTA, 4 nM detection antibody prepared in detection buffer (50 mM Tris-HCl, 150 mM NaCl, 0.5% BSA (Fraction V), pH 7.0)) at room temperature. The plate was then read on a Perkin Elmer EnVision Plate Reader using europium specific reader settings with excitation and emission wavelengths set to 320 or 340 nm and 665 nm, respectively.
For dose-response analyses, percent inhibition versus compound concentrations were plotted, and pIC50 values were determined from a 4-parameter robust fit model with GraphPad Prism V5 Software (GraphPad Software, Inc., La Jolla, Calif.). This model obtains pIC50 values by fitting the sigmodial dose-response (variable slope) equation to the data. Results were expressed as pIC50 (negative logarithm of IC50) and subsequently converted to pKi (negative logarithm of dissociate constant, K) using the Cheng-Prusoff equation.
The higher the value of pKi (lower value of Ki), the greater the inhibition of ALK5 activity.

[2] = tested on: TGF-β-stimulated SMAD3 phosphorylation in BEAS-2B cells; assay: Cellular ALK5 potency assay, inhibition of TGF-β stimulated pSMAD3 formation in BEAS-2B cells; type: cell-based; details: Homo sapiens, inhibition of TGF-β (10 ng/mL) stimulated pSMAD3 formation, 1 hour compound incubation, read-out: BEAS2B pIC50 (converted)
Experimental: Example 255: Cellular ALK5 Potency Assay to Measure pIC50, Inhibition of TGF-β Stimulated pSMAD3 Formation in BEAS-2B Cells
The potency of compounds of the present disclosure for inhibition of TGF-β-stimulated SMAD3 phosphorylation was measured in BEAS-2B cells, a human lung epithelial cell line. TGF-β signals through activin receptor-like kinase 5 (ALK5) immediately prior to SMAD3 phosphorylation.
BEAS-2B cells were grown using 50% DMEM (Life Technologies) and 50% F-12 (Life Technologies) media, supplemented with 10% Fetal Bovine Serum (ATCC), 25 mM HEPES (Life Technologies), and 1×Pen-Strep (Life Technologies). Cells were cultured in a humidified incubator set at 37° C., 5% CO2, and trypsonized using 0.25% Trypsin with 0.5% polyvinylpyrrolidone (PVP).
For the assay, BEAS-2B cells were seeded at 7,500 cells/well (25 μL/well) in a 384-well plate and cultured overnight. Before dosing, growth media was aspirated and the wells were rinsed with HBSS Buffer (HBSS with Calcium and Magnesium, Life Technologies) supplemented with 25 mM HEPES (Life Technologies) and 1% Bovine Serum Albumin (Roche). Compounds were serially diluted in DMSO, then further diluted with supplemented HBSS Buffer (50 μL/well) to create a compound plate 3× of the final assay concentration, at 0.3% DMSO. The diluted compounds were then added to the cells (8 μL/well) and incubated at 37° C., 5% CO2 for 1 hour. After the compound incubation, TGF-β (R&D Systems) reconstituted in supplemented HBSS Buffer was added to the cells ([…], final concentration 10 ng/mL) and incubated for a further 30 minutes, after which the cells were immediately lysed with AlphaLISA lysis buffer (PerkinElmer). AlphaLISA Acceptor and Detector beads (PerkinElmer) were added 2 hours apart, then incubated overnight to be read the next day. The potency of the compound was determined through analysis of dose-dependent quantified changes in pSMAD3 signal from baseline (non-compound treated TGF-β stimulated cells). Data are expressed as pIC50 (negative decadic logarithm IC50) values.

| Ki [1] [nM] | Compound | IC50 [2] [nM] |
| --- | --- | --- |
| 0.0398 to 0.316 | CNC(=O)C1CN(c2cnc3ccc(-c4c[nH]nc4-c4cc(Cl)c(F)cc4F)nc3c2)CCN1 (racemic) [Compound 6-25, rac-(2R)-4-[6-[3-(5-chloro-2,4-difluoro-phenyl)-1H-pyrazol-4-yl]-1,5-naphthyridin-3-yl]-N-methyl-piperazine-2-carboxamide] | 25.1 to 158 |
| 0.398 to 3.16 | Fc1cc(F)c(-c2n[nH]cc2-c2ccc3ncc(NCC4CCCN4)cc3n2)cc1Cl (racemic) [Compound 6-73, 6-[3-(5-chloro-2,4-difluoro-phenyl)-1H-pyrazol-4-yl]-N-[[rac-(2S)-pyrrolidin-2-yl]methyl]-1,5-naphthyridin-3-amine] | 25.1 to 158 |
| 0.398 to 3.16 | CN(C)C1CCN(c2cnc3ccc(-c4c[nH]nc4-c4ccc(F)c(F)c4)nc3c2)C1 (racemic) [Compound 8-5, rac-(3S)-1-[6-[3-(3,4-difluorophenyl)-1H-pyrazol-4-yl]-1,5-naphthyridin-3-yl]-N,N-dimethyl-pyrrolidin-3-amine] | 25.1 to 158 |
| 3.98 to 31.6 | COCc1cccc(-c2n[nH]cc2-c2ccc3ncc(N4CCC(N(C)C)C4)cc3n2)c1 (racemic) [Compound 14-4, rac-(3S)-1-[6-[3-[3-(methoxymethyl)phenyl]-1H-pyrazol-4-yl]-1,5-naphthyridin-3-yl]-N,N-dimethyl-pyrrolidin-3-amine] | 25.1 to 158 |
| 0.0398 to 0.316 | CN(C)C1CCN(c2cnc3ccc(-c4nc[nH]c4-c4cc(Cl)ccc4F)cc3c2)C1 (racemic) [Compound 17-5, rac-(3S)-1-[6-[5-(5-chloro-2-fluoro-phenyl)-1H-imidazol-4-yl]-3-quinolyl]-N,N-dimethyl-pyrrolidin-3-amine] | 25.1 to 158 |
| 0.0398 to 0.316 | CN(C)C1CCN(c2cnc3ccc(-c4c(-c5cc(Cl)ccc5F)nc5ccccn45)cc3c2)C1 (racemic) [Compound 19-7, rac-(3S)-1-[6-[2-(5-chloro-2-fluoro-phenyl)imidazo[1,2-a]pyridin-3-yl]-3-quinolyl]-N,N-dimethyl-pyrrolidin-3-amine] | 200 to 1260 |
| 0.0398 to 0.316 | C[C@@H]1CN(CCNc2cnc3ccc(-c4c[nH]nc4-c4cc(Cl)ccc4F)nc3c2)C[C@H](C)N1 [Compound 1-1, 6-(3-(5-chloro-2-fluorophenyl)-1H-pyrazol-4-yl)-N-(2-((3S,5R)-3,5-dimethylpiperazin-1-yl)ethyl)-1,5-naphthyridin-3-amine] | 25.1 to 158 |
| 0.0398 to 0.316 | CC(C)N1CCN(CCNc2cnc3ccc(-c4c[nH]nc4-c4cc(Cl)ccc4F)nc3c2)CC1 [Compound 1-2] | ≤ 20 |
| 0.0398 to 0.316 | CN1CCC(Nc2cnc3ccc(-c4c[nH]nc4-c4cc(Cl)ccc4F)nc3c2)CC1 [Compound 1-3, 6-[3-(5-chloro-2-fluoro-phenyl)-1H-pyrazol-4-yl]-N-(1-methyl-4-piperidyl)-1,5-naphthyridine-3-amine] | ≤ 20 |
| 0.398 to 3.16 | CN1CCC(Nc2cnc3ccc(-c4c[nH]nc4-c4cc(Cl)ccc4F)nc3c2)C1 (stereo not drawn) [Compound 1-4, 6-[3-(5-chloro-2-fluoro-phenyl)-1H-pyrazol-4-yl]-N-(1-methylpyrrolidin-3-yl)-1,5-naphthyridin-3-amine] | 25.1 to 158 |
| 3.98 to 31.6 | CC(C)N1CCN(C(C)(C)CNc2cnc3ccc(-c4c[nH]nc4-c4cc(Cl)ccc4F)nc3c2)CC1 [Compound 1-5, 6-[3-(5-chloro-2-fluoro-phenyl)-1H-pyrazol-4-yl]-N-[2-(4-isopropylpiperazin-1-yl)-2-methyl-propyl]-1,5-naphthyridin-3-amine] | 25.1 to 158 |
| 0.398 to 3.16 | COCC(C)(CNc1cnc2ccc(-c3c[nH]nc3-c3cc(Cl)ccc3F)nc2c1)N1CCN(C(C)C)CC1 (stereo not drawn) [Compound 1-6, 6-[3-(5-chloro-2-fluoro-phenyl)-1H-pyrazol-4-yl]-N-[2-(4-isopropylpiperazin-1-yl)-3-methoxy-2-methyl-propyl]-1,5-naphthyridin-3-amine] | 200 to 1260 |
| 0.0398 to 0.316 | CN1CC(Nc2cnc3ccc(-c4c[nH]nc4-c4cc(Cl)ccc4F)nc3c2)C1 [Compound 1-7, 6-[3-(5-chloro-2-fluoro-phenyl)-1H-pyrazol-4-yl]-N-(1-methylazetidin-3-yl)-1,5-naphthyridin-3-amine] | ≤ 20 |
| 0.0398 to 0.316 | Fc1ccc(Cl)cc1-c1n[nH]cc1-c1ccc2ncc(NCCN3CCC3)cc2n1 [Compound 1-8, N-[2-(azetidin-1-yl)ethyl]-6-[3-(5-chloro-2-fluoro-phenyl)-1H-pyrazol-4-yl]-1,5-naphthyridin-3-amine] | ≤ 20 |
| 3.98 to 31.6 | CN1CCN(CC(C)(C)Nc2cnc3ccc(-c4c[nH]nc4-c4cc(Cl)ccc4F)nc3c2)CC1 [Compound 1-9, 6-[3-(5-chloro-2-fluoro-phenyl)-1H-pyrazol-4-yl]-N-[1,1-dimethyl-2-(4-methylpiperazin-1-yl)ethyl]-1,5-naphthyridin-3-amine] | 200 to 1260 |
| 0.0398 to 0.316 | Fc1ccc(Cl)cc1-c1n[nH]cc1-c1ccc2ncc(NCC3CN4CCN3CC4)cc2n1 (stereo not drawn) [Compound 1-10, 6-[3-(5-chloro-2-fluoro-phenyl)-1H-pyrazol-4-yl]-N-(1,4-diazabicyclo[2.2.2]octan-2-ylmethyl)-1,5-naphthyridin-3-amine] | ≤ 20 |
| 0.0398 to 0.316 | CCN1CCN(CCNc2cnc3ccc(-c4c[nH]nc4-c4cc(Cl)ccc4F)nc3c2)CC1 [Compound 1-11, 6-[3-(5-chloro-2-fluoro-phenyl)-1H-pyrazol-4-yl]-N-[2-(4-ethylpiperazin-1-yl)ethyl]-1,5-naphthyridin-3-amine] | ≤ 20 |
| 0.0398 to 0.316 | CN1CCN(CCNc2cnc3ccc(-c4c[nH]nc4-c4cc(Cl)ccc4F)nc3c2)CC1 [Compound 1-12, 6-[3-(5-chloro-2-fluoro-phenyl)-1H-pyrazol-4-yl]-N-[2-(4-methylpiperazin-1-yl)ethyl]-1,5-naphthyridin-3-amine] | ≤ 20 |
